Series [1] in a line: Rat liver microsome stability (rlm t1/2). The format is in vitro ADME. The following applies: rat liver microsomes.
A short description of series [2]: Human liver microsome stability (hlm t1/2). As to conditions: human liver microsomes. The format is in vitro ADME.
The target of series [3] is T1, recombinant rat FAAH (rFAAH) (Rattus norvegicus, UniProt P97612).
T1 construct: The truncated rat FAAH (rFAAH) was expressed in E. coli and purified; made in house; host or cells: Escherichia coli
T1 sequence (P97612 30-579 limits assumed): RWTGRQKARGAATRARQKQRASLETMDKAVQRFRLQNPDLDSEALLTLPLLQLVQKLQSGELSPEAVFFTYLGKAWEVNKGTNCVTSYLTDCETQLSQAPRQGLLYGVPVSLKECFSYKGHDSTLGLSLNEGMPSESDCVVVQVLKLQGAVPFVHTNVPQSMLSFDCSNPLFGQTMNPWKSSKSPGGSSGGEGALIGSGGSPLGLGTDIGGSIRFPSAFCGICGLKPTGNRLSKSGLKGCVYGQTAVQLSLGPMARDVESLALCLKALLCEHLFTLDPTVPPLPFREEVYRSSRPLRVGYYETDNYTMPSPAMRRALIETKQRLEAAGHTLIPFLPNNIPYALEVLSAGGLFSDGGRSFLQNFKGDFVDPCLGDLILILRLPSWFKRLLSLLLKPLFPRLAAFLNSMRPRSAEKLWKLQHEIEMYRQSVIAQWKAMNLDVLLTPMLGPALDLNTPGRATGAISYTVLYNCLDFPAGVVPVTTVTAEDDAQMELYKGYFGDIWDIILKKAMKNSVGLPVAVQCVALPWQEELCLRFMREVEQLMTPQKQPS
As to the kind of experiment: Enzyme assay: inhibition of purified recombinant rat FAAH, 14C-oleamide hydrolysis, Ki by Dixon plot. The format is biochemical. The following applies: Ki, rFAAH, Table 5, active (S)-enantiomers. In a few lines:
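Hydrolysis of 14C-oleamide at 20-23° C by purified truncated rat FAAH expressed in E. coli or by lysate of COS-7 cells transfected with full-length human FAAH, in 125 mM Tris/1 mM EDTA/0.2% glycerol/0.02% Triton X-100/0.4 mM Hepes, pH 9.0. Reaction stopped in 0.1 N HCl at three time points; substrate and product separated by TLC; Ki from Dixon plot.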

The target of the next series is T2, human FAAH (hFAAH) (Homo sapiens, UniProt O00519).
T2 construct: The full-length human FAAH (hFAAH) was expressed in COS-7 cells; expressed in transfected cells; host or cells: COS-7 (transiently transfected with human FAAH cDNA)
T2 sequence (O00519 1-579): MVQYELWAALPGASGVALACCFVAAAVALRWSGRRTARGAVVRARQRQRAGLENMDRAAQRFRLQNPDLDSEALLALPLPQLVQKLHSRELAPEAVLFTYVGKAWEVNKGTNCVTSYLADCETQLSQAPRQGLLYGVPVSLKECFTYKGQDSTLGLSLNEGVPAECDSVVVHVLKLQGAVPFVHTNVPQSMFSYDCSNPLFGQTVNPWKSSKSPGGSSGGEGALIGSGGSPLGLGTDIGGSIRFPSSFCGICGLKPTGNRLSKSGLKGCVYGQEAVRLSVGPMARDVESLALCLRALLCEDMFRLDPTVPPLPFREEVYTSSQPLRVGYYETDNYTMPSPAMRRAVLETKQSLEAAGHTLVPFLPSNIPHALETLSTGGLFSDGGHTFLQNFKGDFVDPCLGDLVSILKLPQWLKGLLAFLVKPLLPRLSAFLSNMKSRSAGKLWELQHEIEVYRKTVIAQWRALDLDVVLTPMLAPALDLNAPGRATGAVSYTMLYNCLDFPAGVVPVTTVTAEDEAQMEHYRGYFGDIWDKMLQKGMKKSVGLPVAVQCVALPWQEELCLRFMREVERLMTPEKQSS
As to the kind of experiment: Enzyme assay: inhibition of human FAAH (lysate of hFAAH-transfected COS-7 cells), 14C-oleamide hydrolysis. The format is biochemical. The following applies: for reduction in activity against the human enzyme versus rat FAAH: hFAAH vs rFAAH, active (S)-enantiomers. The protocol: Enzyme assays were performed at 20-23° C. with purified recombinant rat FAAH expressed in Escherichia coli or with solubilized COS-7 membrane extracts from cells transiently transfected with human FAAH cDNA (where specifically indicated) in a buffer of 125 mM Tris/1 mM EDTA/0.2% glycerol/0.02% Triton X-100/0.4 mM Hepes, pH 9.0.
^14C-labeled oleamide was prepared from ^14C-labeled oleic acid. The truncated rat FAAH (rFAAH) was expressed in E. coli and purified. The purified recombinant rFAAH was used in the inhibition assays unless otherwise indicated. The full-length human FAAH (hFAAH) was expressed in COS-7 cells as described, and the lysate of hFAAH-transfected COS-7 cells was used in the inhibition assays where explicitly indicated.
The inhibition assays were performed as follows. […] The enzyme reaction was terminated by transferring 20 μL of the reaction mixture to 500 μL of 0.1 N HCl at three different time points. The ^14C-labeled oleamide (substrate) and oleic acid (product) were extracted with EtOAc and analyzed by TLC as detailed. The Ki of the inhibitor was calculated using a Dixon plot as described (standard deviations are provided in the Supporting Information tables).

Series [4] has as its system endogenous levels of FAAH substrates AEA, PEA, OEA and of 2-AG, AA. As to the kind of experiment: In vivo pharmacodynamic studies: brain and liver lipid levels after inhibitor treatment (LC-MS). Set-up: species or system mouse (C57BL/6J).
Description: This includes monitoring the effects of the inhibitors on the endogenous levels of the FAAH substrates anandamide (AEA, N-arachidonoyl ethanolamine), N-oleoyl ethanolamine (OEA), and N-palmitoyl ethanolamine (PEA), as well as the key lipids 2-arachidonoylglycerol (2-AG) and arachidonic acid (AA) that are not endogenous substrates for FAAH.
Inhibitors were prepared as a saline-emulphor emulsion for intraperitoneal (i.p.) administration by vortexing, sonicating, and gently heating neat compound directly into an 18:1:1 v/v/v solution of saline:ethanol:emulphor, or as a homogeneous PEG solution for oral administration (p.o.) by vortexing, sonicating, and gently heating neat compound directly into PEG300 (Fluka). Male C57BL/6J mice (<6 months old, 20-28 g) were administered inhibitors in saline-emulphor emulsion or an 18:1:1 v/v/v saline:emulphor:ethanol vehicle i.p. at a volume of 10 μL/g weight, or alternatively inhibitors in PEG300 or a PEG300 vehicle p.o. at a volume of 4 μL/g weight. After the indicated amount of time, mice were anesthetized with isofluorane and killed by decapitation. Total brains (˜400 mg) and a portion of the liver (˜100 mg) were removed and flash frozen in liquid N2.
Tissue was weighed and subsequently Dounce homogenized in 2:1:1 v/v/v CHCl3:MeOH:Tris pH 8.0 (8 mL) containing standards for lipids (50 pmol d4-PEA, 2 pmol d4-AEA, 0.5 nmol ds-2-AG, and 10 nmol pentadecanoic acid). The mixture was vortexed and then centrifuged (1,400×g, 10 min). The organic layer was removed, dried under a stream of N2, resolubilized in 2:1 v/v CHCl3:MeOH (120 μL), and 10 μL of this resolubilized lipid was injected onto an Agilent G6410B QQQ instrument. […] Mobile phase A was composed of a 95:5 v/v H2O:MeOH, and mobile phase B was composed of a 65:35:5 v/v/v i-PrOH:MeOH:H2O. 0.1% Formic acid or 0.1% ammonium hydroxide was included to assist in ion formation in positive and negative ionization mode, respectively. The flow rate for each run started at 0.1 mL/min with 0% B. At 5 min, the solvent was immediately changed to 60% B with a flow rate of 0.4 mL/min and increased linearly to 100% B over 10 min. […] MS analysis was performed with an electrospray ionization (ESI) source. […] For negative polarity, the analysis was performed in MS2 scan mode from 100-1000 m/z. The capillary was set to 4 kV, the fragmentor was set to 100 V, and the delta EMV was set to 0. Lipids were quantified by measuring the area under the peak in comparison to the standards.
The test system of series [5] is mice, acute thermal pain (tail flick at 52° C.). In words: Mouse tail flick assay (52° C. warm water), acute thermal pain. The format is in vivo, mouse (CD-1). As to conditions: i.v. administration. The method, then:
Concurrent with these studies, two prototypical inhibitors 12 and 14 were examined for antinociceptive activity in a preclinical model of acute thermal pain (tail flick at 52° C.) in mice alongside 2 and morphine (i.v. administration).
Male CD-1 (25-35 g, Charles River) mice were housed in groups of five in Plexiglas chambers with food and water available ad libitum. All animals were maintained on a 12 h light/dark cycle (lights on at 7:00 AM) in a temperature- and humidity-controlled animal colony. All tail-flick experiments were performed under an approved University of New England animal protocol in accordance with institutional guidelines and in accordance with the Guide for the Care and Use of Laboratory Animals as adopted and promulgated by the National Institutes of Health. Efficacy of the test compound was assessed using the 52° C. warm water tail-flick test. The latency to the first sign of a rapid tail-flick was taken as the behavioral endpoint. Each mouse was first tested for baseline latency by immersing its tail in the water and recording the time to response. Mice not responding within 5 sec were excluded from further testing. Mice were then administered the test compound and tested for antinociception at various time points afterwards. Antinociception was calculated by the following formula: % Antinociception=100×(test latency−control latency)/(10−control latency). A maximum score was assigned (100%) to animals not responding within 10 sec to avoid tissue damage.

[6] abbreviates: Table 6, 30 mg/kg i.p., 1 h, single mouse.
[7] abbreviates: Table 6, 30 mg/kg i.p., 1 h, single mouse, vs vehicle.
The mark [8] stands for this setting: Table 7, i.p. (30 mg/kg), 3 mice per group.
The mark [9] stands for this setting: Table 7, i.p. (30 mg/kg), 3 mice per group, vs vehicle.
Setting [10] is: Table 7, oral (50 mg/kg), 3 mice per group.
Where [11] appears, read: Table 7, oral (50 mg/kg), 3 mice per group, vs vehicle.

For the molecule `O=C(c1ncc(-c2ccccn2)o1)C1CCc2cc(OCc3ccccc3)ccc2C1` (centres unmarked) [Compound 18, (6-(Benzyloxy)-1,2,3,4-tetrahydronaphthalen-2-yl)(5-(pyridin-2-yl)oxazol-2-yl)methanone], the half-life in series [1] and in series [2] was 12 to 15 min each time.
For `O=C(O)c1cccc(-c2cnc(C(=O)C3CCc4cc(Oc5ccccc5)ccc4C3)o2)n1` (centres unmarked) [Compound 14, 6-(2-(6-Phenoxy-1,2,3,4-tetrahydronaphthalene-2-carbonyl)oxazol-5-yl)picolinic acid], in series [3], the Ki turned out to be 25 nM. Moreover, the Ki on human FAAH (hFAAH) (Table 5, active (S)-enantiomers) stood at 110 nM. For the same molecule, the “reduction in activity against the human enzyme versus rat FAAH” value at human FAAH (hFAAH) came to 4 fold. In series [4] (setting [6]), the “Brain 2-AG” value was 14 pmol/g, the “Brain AA” value is reported as 154 pmol/g, the “Brain AEA” value worked out at 12 pmol/g and the “Brain PEA” value is listed as 224 pmol/g. For the same molecule, in series [4] (setting [6]), the “Liver 2-AG” value came to 0.35 pmol/g, the “Liver AEA” value is listed as 10 pmol/g and the “Liver PEA” value was determined as 284 pmol/g. For the same molecule, in series [4] (setting [7]), the “Brain 2-AG (fold increase)” value worked out at 1.0 fold increase, the “Brain AA (fold increase)” value amounted to 0.7 fold increase, the “Brain AEA (fold increase)” value worked out at 1.5 fold increase and the “Brain PEA (fold increase)” value came to 2.0 fold increase. Moreover, in series [4] (setting [7]), the “Liver 2-AG (fold increase)” value was found to be 1.1 fold increase, the “Liver AEA (fold increase)” value is reported as 5 fold increase and the “Liver PEA (fold increase)” value stood at 2.1 fold increase. Also, in series [4] (setting [8]), the “Brain 2-AG” value worked out at 8.5 pmol/g, the “Brain AEA” value is listed as 9.0 pmol/g and the “Brain PEA” value was 321 pmol/g. Further, in series [4] (setting [9]), the “Brain AEA (fold increase)” value is reported as 1.6 fold increase and the “Brain PEA (fold increase)” value amounted to 4.5 fold increase. Further, in series [4] (setting [10]), the “Brain 2-AG” value is 11.2 pmol/g, the “Brain AEA” value turned out to be 19.8 pmol/g and the “Brain PEA” value is on record as 260 pmol/g. In series [4] (setting [11]), the “Brain AEA (fold increase)” value was 3.5 fold increase and the “Brain PEA (fold increase)” value is 3.7 fold increase. In series [5], the “dose needed for maximal effect relative to morphine” value came out at 2 fold, the “duration of antinociceptive effect” value was 150 min and the “time of maximal antinociceptive effect” value was in the range of 30 to 60 min. For the same molecule, the “maximal antinociceptive effect (efficacy)” value in series [5] (dose-response alongside morphine) is on record as “same maximal effect (efficacy) observed with morphine”.
`O=C(CCCCCCc1ccccc1)c1ncc(-c2ccccn2)o1` [Compound 2, reference compound]: the “reduction in activity against the human enzyme versus rat FAAH” value at human FAAH (hFAAH) is recorded as “no significant distinction”. Besides, in series [4] (setting [6]), the “Brain AEA” value is given as 38 pmol/g, the “Brain PEA” value was determined as 540 pmol/g, the “Liver 2-AG” value is 0.28 pmol/g and the “Liver AEA” value worked out at 14 pmol/g. For the same molecule, the “Liver PEA” value in series [4] (setting [6]) amounted to 208 pmol/g. Besides, in series [4] (setting [7]), the “Brain AEA (fold increase)” value worked out at 4.8 fold increase, the “Brain PEA (fold increase)” value is recorded as 5.0 fold increase, the “Liver 2-AG (fold increase)” value came out at 0.9 fold increase and the “Liver AEA (fold increase)” value is 7 fold increase. Moreover, the “Liver PEA (fold increase)” value in series [4] (setting [7]) is given as 1.6 fold increase. In series [4] (p.o. 50 mg/kg, 1 h), the “increase in brain levels of anandamide” value came out at 11 fold. Besides, the half-life in series [1] fell in the range of 2 to 4 min. Moreover, the half-life in series [2] lay within 2 to 4 min.

The record behind these values is patent US9504675B2, “Alpha-ketoheterocycles and methods of making and using” (The Scripps Research Institute, priority 2011, dated 2016).
